Holding throughout (type): binding
For test [1], the target named is T1, LARS1 (leucyl-tRNA synthetase 1) (Homo sapiens, UniProt Q9P2J5).
T1 construct: full length 1-1176, His-tagged in pQE-80L (BamHI/HindIII), E. coli Rosetta (DE3); tag removal not mentioned; one molecule in the asymmetric unit; lysines reductively methylated in LARS1-methyl (6KR7)
Put plainly: intrinsic-fluorescence DSF (Tycho NT.[…]). The settings on record: 2, 5, 10, 20 mM leucine; Tris-HCl pH 7.5, 150 mM NaCl, 5 mM MgCl2, 2 mM DTT, 0.1% Tween-20; 1 mg/mL LARS1.

Test [2] deals with T1, LARS1 (leucyl-tRNA synthetase 1). Put plainly: X-ray crystallography, co-crystal. The settings on record: 2 mM leucine; bis-tris pH 6.5, 1.6 M ammonium sulfate; LARS1-Leu^syn, synthetic site.
The target is the same in test [3]. Put plainly: microscale thermophoresis (Monolith NT.[…], RED-tris-NTA labelled His-LARS1). Background: Microscale thermophoresis detects binding through changes in fluorescence in a small temperature gradient.

SMILES strings stand for the structures.

Results on one compound are retold here after PMC8260868, “Protocol for improving diffraction quality of leucyl-tRNA synthetase 1 with methylation and post-crystallization soaking and cooling in cryoprotectants” (STAR Protocols, 2021).

T1 sequence (Q9P2J5 whole entry): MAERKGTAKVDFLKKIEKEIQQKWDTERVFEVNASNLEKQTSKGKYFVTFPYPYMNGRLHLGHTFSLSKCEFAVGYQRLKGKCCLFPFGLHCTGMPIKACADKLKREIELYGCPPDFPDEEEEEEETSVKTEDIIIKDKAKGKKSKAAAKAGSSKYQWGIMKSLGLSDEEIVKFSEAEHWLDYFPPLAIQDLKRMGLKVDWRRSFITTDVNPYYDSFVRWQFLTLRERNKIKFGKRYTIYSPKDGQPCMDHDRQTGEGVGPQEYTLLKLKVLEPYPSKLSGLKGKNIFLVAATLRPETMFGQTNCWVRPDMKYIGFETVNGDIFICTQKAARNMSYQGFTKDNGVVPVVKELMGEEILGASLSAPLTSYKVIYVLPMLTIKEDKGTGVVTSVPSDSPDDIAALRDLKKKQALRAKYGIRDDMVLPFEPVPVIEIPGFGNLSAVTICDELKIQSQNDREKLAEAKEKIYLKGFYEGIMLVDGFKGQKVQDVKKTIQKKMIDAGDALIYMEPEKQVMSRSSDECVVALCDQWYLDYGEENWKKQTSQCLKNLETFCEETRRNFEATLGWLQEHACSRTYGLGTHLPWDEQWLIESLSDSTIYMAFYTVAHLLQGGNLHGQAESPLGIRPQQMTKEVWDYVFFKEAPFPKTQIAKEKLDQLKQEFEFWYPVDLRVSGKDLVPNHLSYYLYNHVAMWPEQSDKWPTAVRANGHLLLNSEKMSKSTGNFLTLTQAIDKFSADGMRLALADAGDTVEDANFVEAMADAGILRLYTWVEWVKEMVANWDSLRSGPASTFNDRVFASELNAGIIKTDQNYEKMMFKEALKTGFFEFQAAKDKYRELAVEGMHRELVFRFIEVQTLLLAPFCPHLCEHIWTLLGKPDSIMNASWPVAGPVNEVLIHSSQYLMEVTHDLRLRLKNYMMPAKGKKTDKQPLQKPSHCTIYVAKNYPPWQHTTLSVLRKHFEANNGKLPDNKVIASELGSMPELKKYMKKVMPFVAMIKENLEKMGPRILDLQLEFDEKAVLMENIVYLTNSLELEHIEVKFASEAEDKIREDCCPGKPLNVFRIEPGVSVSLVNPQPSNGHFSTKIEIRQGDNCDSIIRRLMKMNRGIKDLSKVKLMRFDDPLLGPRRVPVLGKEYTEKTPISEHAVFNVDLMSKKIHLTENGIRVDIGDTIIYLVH

Broadly, the Kd is the equilibrium constant for the complex coming apart. Higher therefore signals a looser complex. In the case of `CC(C)C[C@H](N)C(=O)O` [L-Leucine], the Ti result in test [1] is “LARS1 was incubated with leucine and the inflection temperature (Ti) was measured”. In addition, the “X-ray crystallography, co-crystal” value in test [2] is on record as “prepare LARS1-Leu^syn crystals subsequently deposited in PDB with the code 6KQY”. The same compound returned a Kd in test [3] of 119 ± 63.1 µM.
